These results are taken from the Kinase Knowledgebase extract (Sharma et al. 2016).

pIC50: −log10 of the molar value.

Sequence of MAPK14 (human) (Q16539 whole entry, looked up): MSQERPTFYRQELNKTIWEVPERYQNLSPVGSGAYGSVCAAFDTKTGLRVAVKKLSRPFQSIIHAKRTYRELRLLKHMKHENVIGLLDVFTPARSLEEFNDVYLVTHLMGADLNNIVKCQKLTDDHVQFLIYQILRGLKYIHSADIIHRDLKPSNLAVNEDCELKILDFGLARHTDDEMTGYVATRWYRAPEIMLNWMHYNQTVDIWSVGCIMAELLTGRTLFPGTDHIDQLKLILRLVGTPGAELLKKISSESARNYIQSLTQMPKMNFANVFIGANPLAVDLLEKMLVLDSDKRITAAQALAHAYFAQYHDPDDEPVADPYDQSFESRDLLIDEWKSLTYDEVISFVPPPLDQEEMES

The assay concerns the target MAPK14 (human) (UniProt Q16539). Nature of the assay: Inhibition of MAPK14 Kinase Activity.
`Cc1ccccc1-c1ncnc2c1[nH]c(=O)n2-c1ccc(F)cc1F`: the pIC50 is 5.80.
With `Cc1ccccc1-c1ncnc2c1[nH]c(=O)n2-c1c(F)cccc1F`, the pIC50 is 6.30.
As to `O=c1[nH]c2c(-c3ccccc3Cl)ncnc2n1-c1ccc(F)cc1F`, the pIC50 is 5.57.
Turning to `Cc1ccccc1-c1ncnc2c1[nH]c(=S)n2-c1c(C)cccc1C`, the pIC50 was 4.00.
Turning to `O=c1[nH]c2c(-c3ccccc3Cl)ncnc2n1-c1c(F)cccc1F`, the pIC50 is 6.05.
`O=c1[nH]c2c(-c3ccccc3)ncnc2n1-c1c(F)cccc1F` showed a pIC50 of 4.76.
Compound `Cc1cccc(C)c1-n1c(=O)[nH]c2c(-c3ccccc3Cl)ncnc21` had a pIC50 of 5.11.
The same measure for `O=c1[nH]c2c(-c3ccccc3F)ncnc2n1-c1c(F)cccc1F`: 5.11; for `Cc1ccccc1-c1ncnc2c1[nH]c(=O)n2-c1c(C)cccc1C`: 4.74; for `COc1ccc(-n2c(=O)[nH]c3c(-c4ccccc4C)ncnc32)c(OC)c1`: 5.28.
